Assay results reported in ChEMBL document CHEMBL4354805, “Discovery of MK-8719, a Potent O-GlcNAcase Inhibitor as a Potential Treatment for Tauopathies” (J Med Chem, 2019).
pEC50, pIC50, pKi: −log10 of the molar value.

What was measured:
[1] = molecular target: T1, Protein O-GlcNAcase (Rattus norvegicus, UniProt Q8VIJ5); assay: Inhibition of OGA in rat PC12 cells assessed as OGlcNAcylated protein level incubated for 24 hrs by ELISA; assay type: cell-based
T1 sequence (Q8VIJ5 whole entry): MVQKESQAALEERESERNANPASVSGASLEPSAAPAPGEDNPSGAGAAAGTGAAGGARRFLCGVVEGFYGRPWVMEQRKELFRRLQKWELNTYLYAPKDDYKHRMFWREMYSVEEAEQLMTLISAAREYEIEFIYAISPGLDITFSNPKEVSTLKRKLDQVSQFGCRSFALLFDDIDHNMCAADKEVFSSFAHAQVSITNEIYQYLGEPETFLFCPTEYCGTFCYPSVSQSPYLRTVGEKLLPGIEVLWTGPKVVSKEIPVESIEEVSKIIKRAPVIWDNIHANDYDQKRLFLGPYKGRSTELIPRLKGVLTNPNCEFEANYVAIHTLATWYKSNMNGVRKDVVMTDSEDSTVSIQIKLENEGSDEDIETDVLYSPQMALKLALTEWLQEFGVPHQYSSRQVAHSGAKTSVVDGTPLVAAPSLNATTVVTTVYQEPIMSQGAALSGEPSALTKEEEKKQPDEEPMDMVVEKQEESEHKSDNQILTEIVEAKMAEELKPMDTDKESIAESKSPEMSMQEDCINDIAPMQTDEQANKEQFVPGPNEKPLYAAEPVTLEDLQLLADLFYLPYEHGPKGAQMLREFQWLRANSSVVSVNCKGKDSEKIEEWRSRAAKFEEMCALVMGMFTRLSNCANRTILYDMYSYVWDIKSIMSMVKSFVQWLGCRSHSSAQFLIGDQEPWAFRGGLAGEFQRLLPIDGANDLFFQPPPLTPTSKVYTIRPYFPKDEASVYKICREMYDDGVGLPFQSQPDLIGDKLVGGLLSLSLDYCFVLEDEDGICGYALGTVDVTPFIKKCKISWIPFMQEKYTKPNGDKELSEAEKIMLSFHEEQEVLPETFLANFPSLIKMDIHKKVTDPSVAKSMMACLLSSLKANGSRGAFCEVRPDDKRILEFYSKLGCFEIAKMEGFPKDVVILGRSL

[2] = Fraction unbound in Wistar Han rat plasma at 2.5 uM by equilibrium dialysis; assay type: ADME, cell-free
[3] = AUCN in Wistar Han rat at 3 mg/kg, po; assay type: ADME, organism-based; details: in vivo
[4] = Fraction unbound in human plasma at 2.5 uM by equilibrium dialysis; assay type: ADME, cell-free
[5] = Volume of distribution at steady state in Wistar Han rat at 2 mg/kg, iv or 3 mg/kg, po; assay type: ADME, organism-based; details: in vivo, read-out: Vdss
[6] = Oral bioavailability in Wistar Han rat at 3 mg/kg; assay type: ADME, organism-based; details: in vivo
[7] = tested on: Rattus norvegicus; assay: Elevation of O-protein in rat brain at 3 mg/kg, po measured after 8 hrs relative to control; assay type: functional
[8] = molecular target: T2, Protein O-GlcNAcase (Homo sapiens, UniProt O60502); assay: Inhibition of recombinant human OGA
T2 sequence (O60502 whole entry): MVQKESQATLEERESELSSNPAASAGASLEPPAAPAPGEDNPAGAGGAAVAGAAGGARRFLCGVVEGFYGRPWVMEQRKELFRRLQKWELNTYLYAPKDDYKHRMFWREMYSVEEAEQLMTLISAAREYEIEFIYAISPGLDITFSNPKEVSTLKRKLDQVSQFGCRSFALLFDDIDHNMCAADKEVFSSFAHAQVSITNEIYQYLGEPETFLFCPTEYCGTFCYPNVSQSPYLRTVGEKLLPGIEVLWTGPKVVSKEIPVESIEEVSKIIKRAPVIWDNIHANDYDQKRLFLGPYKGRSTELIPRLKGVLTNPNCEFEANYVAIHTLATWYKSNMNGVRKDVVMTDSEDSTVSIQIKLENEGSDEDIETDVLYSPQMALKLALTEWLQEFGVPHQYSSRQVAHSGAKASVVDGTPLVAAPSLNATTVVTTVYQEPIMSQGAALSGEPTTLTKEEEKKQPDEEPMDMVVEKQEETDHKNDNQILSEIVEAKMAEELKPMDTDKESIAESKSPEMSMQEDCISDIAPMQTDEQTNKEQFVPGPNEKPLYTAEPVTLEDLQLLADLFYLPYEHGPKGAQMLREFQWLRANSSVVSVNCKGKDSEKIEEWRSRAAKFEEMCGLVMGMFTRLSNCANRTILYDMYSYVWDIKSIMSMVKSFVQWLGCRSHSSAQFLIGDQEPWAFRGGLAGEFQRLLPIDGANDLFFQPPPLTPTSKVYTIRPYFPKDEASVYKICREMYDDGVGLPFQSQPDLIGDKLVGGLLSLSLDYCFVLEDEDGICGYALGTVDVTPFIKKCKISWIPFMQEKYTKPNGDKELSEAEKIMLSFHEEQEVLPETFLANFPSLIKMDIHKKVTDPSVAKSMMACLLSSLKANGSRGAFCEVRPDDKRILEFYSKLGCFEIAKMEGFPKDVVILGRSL

[9] = Clearance in Wistar Han rat at 2 mg/kg, iv; assay type: ADME, organism-based; details: in vivo
[10] = Half life in Wistar Han rat at 2 mg/kg, iv; assay type: ADME, organism-based; details: in vivo
[11] = Ratio of drug uptake in rat brain to plasma at 3 mg/kg, po measured after 8 hrs; assay type: ADME, organism-based; details: read-out: BPR
[12] = tested on: MDR1; assay: Apparent permeability in pig LLC-PK1 cells transfected with MDR1; assay type: ADME, cell-based, Sus scrofa
[13] = molecular target: T3, Beta-hexosaminidase subunit beta (Homo sapiens, UniProt P07686); assay: Inhibition of human beta hexosaminidase assessed as inhibitory constant using 4-methylumbelliferyl N-acetyl-beta-D-glucosaminide dihydrate as substrate measured every 60 sec for 45 mins by fluorescence spectrophotometry
T3 sequence (P07686 whole entry): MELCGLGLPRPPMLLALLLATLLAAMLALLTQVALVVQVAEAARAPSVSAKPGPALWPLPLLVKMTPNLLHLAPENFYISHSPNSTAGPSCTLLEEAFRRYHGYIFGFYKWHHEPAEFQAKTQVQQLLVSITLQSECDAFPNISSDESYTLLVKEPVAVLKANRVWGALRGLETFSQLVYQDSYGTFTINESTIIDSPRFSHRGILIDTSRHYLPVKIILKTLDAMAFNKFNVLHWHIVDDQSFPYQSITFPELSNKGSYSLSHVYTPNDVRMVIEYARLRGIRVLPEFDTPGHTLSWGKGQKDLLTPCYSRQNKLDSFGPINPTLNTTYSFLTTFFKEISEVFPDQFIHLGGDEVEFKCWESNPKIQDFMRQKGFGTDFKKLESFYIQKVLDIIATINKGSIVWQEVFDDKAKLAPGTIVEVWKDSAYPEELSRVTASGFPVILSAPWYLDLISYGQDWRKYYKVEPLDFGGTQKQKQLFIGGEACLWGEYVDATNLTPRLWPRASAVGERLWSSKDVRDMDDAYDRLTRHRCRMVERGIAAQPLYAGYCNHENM

[14] = Drug uptake in rat brain at 3 mg/kg, po measured after 8 hrs; assay type: ADME, organism-based; details: in vivo
[15] = Volume of distribution at steady state in Wistar Han rat at 2 mg/kg, iv or 10 mg/kg, po; assay type: ADME, organism-based; details: in vivo, read-out: Vdss
[16] = molecular target: Voltage-gated inwardly rectifying potassium channel KCNH2 (Homo sapiens, UniProt Q12809); assay: Displacement of MK-0499 from human ERG
[17] = molecular target: Voltage-dependent L-type calcium channel subunit alpha-1C (Homo sapiens, UniProt Q13936); assay: Inhibition of Cav1.2 (unknown origin)
[18] = molecular target: Cytochrome P450 2D6 (Homo sapiens, UniProt P10635); assay: Inhibition of CYP2D6 (unknown origin); assay type: ADME
[19] = molecular target: Cytochrome P450 2C9 (Homo sapiens, UniProt P11712); assay: Inhibition of CYP2C9 (unknown origin); assay type: ADME
[20] = AUCN in Wistar Han rat at 10 mg/kg, po; assay type: ADME, organism-based; details: in vivo
[21] = Oral bioavailability in Wistar Han rat at 10 mg/kg; assay type: ADME, organism-based; details: in vivo
[22] = molecular target: Cytochrome P450 3A4 (Homo sapiens, UniProt P08684); assay: Inhibition of CYP3A4 (unknown origin); assay type: ADME
[23] = molecular target: T4, Nuclear receptor subfamily 1 group I member 2 (Homo sapiens, UniProt O75469); assay: Activation of PXR (unknown origin) assessed as CYP3A4 induction
T4 sequence (O75469 whole entry): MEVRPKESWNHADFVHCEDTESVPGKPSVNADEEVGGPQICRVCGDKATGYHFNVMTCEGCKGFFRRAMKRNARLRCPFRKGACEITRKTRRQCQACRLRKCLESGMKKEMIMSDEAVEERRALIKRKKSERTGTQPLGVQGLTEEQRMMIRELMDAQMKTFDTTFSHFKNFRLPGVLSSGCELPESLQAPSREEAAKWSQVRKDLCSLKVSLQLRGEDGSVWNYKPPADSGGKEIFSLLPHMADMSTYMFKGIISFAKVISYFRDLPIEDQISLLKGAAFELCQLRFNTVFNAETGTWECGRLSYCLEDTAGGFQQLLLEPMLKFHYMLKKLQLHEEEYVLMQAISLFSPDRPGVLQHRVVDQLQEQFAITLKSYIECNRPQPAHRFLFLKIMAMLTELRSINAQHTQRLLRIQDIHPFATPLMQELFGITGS

[24] = molecular target: Sodium channel protein type 5 subunit alpha (Homo sapiens, UniProt Q14524); assay: Inhibition of Nav1.5 (unknown origin)
Sequence of Sodium channel protein type 5 subunit alpha (Q14524 whole entry): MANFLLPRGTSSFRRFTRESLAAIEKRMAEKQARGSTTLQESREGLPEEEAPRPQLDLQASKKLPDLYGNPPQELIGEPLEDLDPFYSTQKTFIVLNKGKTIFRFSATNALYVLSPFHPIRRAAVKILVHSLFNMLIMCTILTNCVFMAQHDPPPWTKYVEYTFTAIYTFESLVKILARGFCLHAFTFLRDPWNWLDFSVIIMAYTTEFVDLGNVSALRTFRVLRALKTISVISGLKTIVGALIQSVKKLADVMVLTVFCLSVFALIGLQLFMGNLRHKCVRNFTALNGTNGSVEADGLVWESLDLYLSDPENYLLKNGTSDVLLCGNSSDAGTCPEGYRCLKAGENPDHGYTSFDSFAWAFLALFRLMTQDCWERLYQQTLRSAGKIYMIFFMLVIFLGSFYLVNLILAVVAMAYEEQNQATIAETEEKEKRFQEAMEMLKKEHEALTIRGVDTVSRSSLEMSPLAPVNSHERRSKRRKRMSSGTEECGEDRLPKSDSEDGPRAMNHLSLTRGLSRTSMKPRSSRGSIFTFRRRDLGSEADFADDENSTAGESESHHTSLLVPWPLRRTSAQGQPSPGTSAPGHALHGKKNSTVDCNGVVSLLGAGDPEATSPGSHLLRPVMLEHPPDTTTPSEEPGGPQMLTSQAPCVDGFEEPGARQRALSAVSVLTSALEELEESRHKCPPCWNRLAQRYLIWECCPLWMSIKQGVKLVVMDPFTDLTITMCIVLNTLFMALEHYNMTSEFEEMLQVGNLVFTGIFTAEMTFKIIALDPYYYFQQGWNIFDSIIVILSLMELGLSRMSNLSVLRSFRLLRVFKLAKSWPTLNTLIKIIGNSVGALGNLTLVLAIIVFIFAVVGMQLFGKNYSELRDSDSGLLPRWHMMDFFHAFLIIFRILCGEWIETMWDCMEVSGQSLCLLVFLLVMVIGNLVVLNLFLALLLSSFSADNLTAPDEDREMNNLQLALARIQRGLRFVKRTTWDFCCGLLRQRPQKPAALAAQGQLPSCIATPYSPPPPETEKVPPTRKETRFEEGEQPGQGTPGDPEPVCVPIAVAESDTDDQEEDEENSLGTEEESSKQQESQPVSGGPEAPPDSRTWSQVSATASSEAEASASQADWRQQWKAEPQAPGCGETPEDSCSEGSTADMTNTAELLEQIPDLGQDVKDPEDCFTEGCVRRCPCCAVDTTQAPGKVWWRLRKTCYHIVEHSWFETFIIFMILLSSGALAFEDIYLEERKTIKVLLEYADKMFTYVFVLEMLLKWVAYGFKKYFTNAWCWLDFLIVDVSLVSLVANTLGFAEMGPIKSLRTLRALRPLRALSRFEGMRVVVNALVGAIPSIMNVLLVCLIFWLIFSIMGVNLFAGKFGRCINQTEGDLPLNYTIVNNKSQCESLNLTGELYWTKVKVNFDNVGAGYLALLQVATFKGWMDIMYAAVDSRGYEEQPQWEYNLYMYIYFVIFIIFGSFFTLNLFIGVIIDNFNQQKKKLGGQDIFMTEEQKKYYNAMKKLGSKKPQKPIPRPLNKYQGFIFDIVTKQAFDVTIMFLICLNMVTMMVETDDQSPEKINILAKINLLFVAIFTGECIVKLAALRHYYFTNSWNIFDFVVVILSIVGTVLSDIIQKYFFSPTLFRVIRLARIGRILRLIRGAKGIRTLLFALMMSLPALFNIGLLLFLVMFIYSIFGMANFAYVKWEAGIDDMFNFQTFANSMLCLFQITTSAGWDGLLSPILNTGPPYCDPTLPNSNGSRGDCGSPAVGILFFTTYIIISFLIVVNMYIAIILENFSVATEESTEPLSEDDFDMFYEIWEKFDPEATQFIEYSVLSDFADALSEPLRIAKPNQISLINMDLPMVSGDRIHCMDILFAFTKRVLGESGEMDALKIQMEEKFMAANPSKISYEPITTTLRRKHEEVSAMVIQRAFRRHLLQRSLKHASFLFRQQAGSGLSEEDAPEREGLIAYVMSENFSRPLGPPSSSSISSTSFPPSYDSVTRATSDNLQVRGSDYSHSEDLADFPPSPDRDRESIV

Sequence of Cytochrome P450 2D6 (P10635 whole entry): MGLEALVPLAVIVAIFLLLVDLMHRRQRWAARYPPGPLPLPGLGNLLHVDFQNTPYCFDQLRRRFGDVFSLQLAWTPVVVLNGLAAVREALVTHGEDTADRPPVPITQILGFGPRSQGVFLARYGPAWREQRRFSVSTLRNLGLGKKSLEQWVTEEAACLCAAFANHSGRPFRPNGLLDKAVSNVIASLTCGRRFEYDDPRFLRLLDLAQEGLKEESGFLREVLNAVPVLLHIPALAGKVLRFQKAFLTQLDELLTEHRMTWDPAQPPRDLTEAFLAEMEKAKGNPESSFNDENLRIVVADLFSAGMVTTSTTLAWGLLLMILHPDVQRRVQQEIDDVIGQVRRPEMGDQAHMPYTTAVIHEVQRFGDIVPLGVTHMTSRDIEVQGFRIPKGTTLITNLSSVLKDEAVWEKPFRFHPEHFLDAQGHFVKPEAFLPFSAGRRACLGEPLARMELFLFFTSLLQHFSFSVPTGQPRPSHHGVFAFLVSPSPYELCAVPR
Sequence of Cytochrome P450 2C9 (P11712 whole entry): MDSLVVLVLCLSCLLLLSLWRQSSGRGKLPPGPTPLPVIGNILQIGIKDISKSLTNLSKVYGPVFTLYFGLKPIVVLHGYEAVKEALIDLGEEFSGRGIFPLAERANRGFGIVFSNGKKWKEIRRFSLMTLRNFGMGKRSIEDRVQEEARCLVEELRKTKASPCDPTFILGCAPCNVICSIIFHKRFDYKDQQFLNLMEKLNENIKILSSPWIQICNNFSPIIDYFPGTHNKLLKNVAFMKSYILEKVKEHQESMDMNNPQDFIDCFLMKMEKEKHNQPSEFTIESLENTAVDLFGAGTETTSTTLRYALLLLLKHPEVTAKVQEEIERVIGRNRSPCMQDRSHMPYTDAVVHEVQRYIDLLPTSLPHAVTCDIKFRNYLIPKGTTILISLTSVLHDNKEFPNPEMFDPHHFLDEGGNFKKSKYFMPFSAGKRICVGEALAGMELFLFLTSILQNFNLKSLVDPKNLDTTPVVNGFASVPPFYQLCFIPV
Sequence of Voltage-gated inwardly rectifying potassium channel KCNH2 (Q12809 whole entry): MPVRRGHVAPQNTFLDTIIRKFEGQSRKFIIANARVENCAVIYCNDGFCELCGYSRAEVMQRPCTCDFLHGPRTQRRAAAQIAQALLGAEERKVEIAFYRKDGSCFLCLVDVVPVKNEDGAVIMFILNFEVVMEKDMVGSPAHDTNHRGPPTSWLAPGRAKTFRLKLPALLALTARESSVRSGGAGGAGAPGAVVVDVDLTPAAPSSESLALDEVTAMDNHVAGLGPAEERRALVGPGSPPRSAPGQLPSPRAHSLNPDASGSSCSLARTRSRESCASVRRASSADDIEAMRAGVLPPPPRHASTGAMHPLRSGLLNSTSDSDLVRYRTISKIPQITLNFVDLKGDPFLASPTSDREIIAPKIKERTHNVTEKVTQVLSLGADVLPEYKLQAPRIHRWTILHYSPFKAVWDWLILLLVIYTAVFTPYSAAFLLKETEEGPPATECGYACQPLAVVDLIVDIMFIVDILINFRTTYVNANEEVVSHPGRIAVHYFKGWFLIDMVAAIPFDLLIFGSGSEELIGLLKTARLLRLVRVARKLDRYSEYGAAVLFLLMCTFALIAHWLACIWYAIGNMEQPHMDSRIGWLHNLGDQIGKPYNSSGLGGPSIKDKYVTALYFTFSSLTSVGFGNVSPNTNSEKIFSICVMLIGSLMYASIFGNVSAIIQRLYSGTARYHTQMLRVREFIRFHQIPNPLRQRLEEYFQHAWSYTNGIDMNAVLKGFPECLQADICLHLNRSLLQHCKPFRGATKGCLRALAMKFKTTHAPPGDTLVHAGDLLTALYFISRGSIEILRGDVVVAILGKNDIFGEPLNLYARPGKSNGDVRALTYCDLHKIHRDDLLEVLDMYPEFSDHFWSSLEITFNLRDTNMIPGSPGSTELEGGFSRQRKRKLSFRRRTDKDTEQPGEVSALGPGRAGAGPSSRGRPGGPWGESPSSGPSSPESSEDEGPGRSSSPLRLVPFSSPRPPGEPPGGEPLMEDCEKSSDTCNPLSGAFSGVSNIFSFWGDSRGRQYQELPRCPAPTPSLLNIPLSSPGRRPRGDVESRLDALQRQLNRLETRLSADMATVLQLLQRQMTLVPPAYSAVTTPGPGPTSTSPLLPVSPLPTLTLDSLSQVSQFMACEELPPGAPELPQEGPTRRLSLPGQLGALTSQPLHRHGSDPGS
Sequence of Cytochrome P450 3A4 (P08684 whole entry): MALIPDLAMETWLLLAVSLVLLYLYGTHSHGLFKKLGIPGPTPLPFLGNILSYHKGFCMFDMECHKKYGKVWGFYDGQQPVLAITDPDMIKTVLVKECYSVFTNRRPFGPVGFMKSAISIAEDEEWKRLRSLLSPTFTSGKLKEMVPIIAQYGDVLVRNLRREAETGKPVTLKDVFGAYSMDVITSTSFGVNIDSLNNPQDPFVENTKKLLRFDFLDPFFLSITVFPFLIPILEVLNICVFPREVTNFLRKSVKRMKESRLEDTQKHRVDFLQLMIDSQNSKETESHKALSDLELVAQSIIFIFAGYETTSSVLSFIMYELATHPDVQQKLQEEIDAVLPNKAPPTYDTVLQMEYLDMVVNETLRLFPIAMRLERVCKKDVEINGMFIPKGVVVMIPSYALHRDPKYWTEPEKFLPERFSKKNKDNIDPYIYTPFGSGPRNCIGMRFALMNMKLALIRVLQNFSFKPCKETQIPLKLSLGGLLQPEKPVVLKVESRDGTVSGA

Compound	pEC50 [1]	pKi [8]	clearance [9]	half-life [10]	Papp [12]	pKi [13]	Vd [15]	AUC/dose [20]	bioavailability [21]	other results
CNC1=N[C@@H]2[C@@H](O)[C@H](O)[C@@H](C(F)F)O[C@@H]2S1	8.77	9.44	27.1 mL/min/kg	1.48 h	5.7 ×10⁻⁶ cm/s	5.89				fraction unbound at 2.5 µM [2]: 0.83; AUC/dose [3]: 2.54 µM·kg·h/mg; fraction unbound at 2.5 µM [4]: 0.77; Vd [5]: 1.72 L/kg; bioavailability [6]: 93.8%; fold change (FC) [7]: 2; Kp at 8 h [11]: 1.33; Drug uptake [14]: 0.133 nmol/g
CCNC1=N[C@@H]2[C@@H](F)[C@H](O)[C@@H](CO)O[C@@H]2S1	6.35	7.54	31.9 mL/min/kg	2.4 h	2.7 ×10⁻⁶ cm/s	< 5.00	2 L/kg	2.16 µM·kg·h/mg	104%	pIC50 [16]: < 4.52; pIC50 [17]: < 4.52; pIC50 [18]: < 4.30; pIC50 [19]: < 4.30; pIC50 [22]: < 4.30; pEC50 [23]: < 4.52; pIC50 [24]: < 4.52
CCN(C)C1=N[C@@H]2[C@@H](O)[C@H](O)[C@@H](CO)O[C@@H]2S1	7.44	8.26	66.3 mL/min/kg	1.89 h	1.1 ×10⁻⁶ cm/s	5.44	5.39 L/kg	0.598 µM·kg·h/mg	62%	pIC50 [16]: < 4.52; pIC50 [17]: < 4.52; pIC50 [18]: < 4.30; pIC50 [19]: < 4.30; pIC50 [22]: < 4.30; pEC50 [23]: < 4.52; pIC50 [24]: < 4.52
CNC1=N[C@@H]2C[C@H](O)[C@@H](CO)O[C@@H]2S1	7.48	8.03	39 mL/min/kg	1.06 h		< 5.00	2.8 L/kg	2.53 µM·kg·h/mg	129%	
OC[C@H]1O[C@@H]2SC(N3CCC3)=N[C@@H]2[C@@H](O)[C@@H]1O	7.55	8.48	53.6 mL/min/kg	1.63 h		< 5.00	2.88 L/kg	1.15 µM·kg·h/mg	96%	
CCCNC1=N[C@@H]2[C@@H](O)[C@H](O)[C@@H](C(F)F)O[C@@H]2S1	7.38	8.28	72.6 mL/min/kg	3.89 h	14 ×10⁻⁶ cm/s	< 5.00				AUC/dose [3]: 0.376 µM·kg·h/mg; Vd [5]: 5.99 L/kg; bioavailability [6]: 44.8%; fold change (FC) [7]: 1.81; Kp at 8 h [11]: 8.81; Drug uptake [14]: 0.193 nmol/g
CCCNC1=N[C@@H]2[C@@H](O)[C@H](O)[C@@H](CF)O[C@@H]2S1	6.92	7.85			17 ×10⁻⁶ cm/s	< 5.00			75.3%	
